# Results as given in patent US20030162803A1, “Anhydrovinblastine for the treatment of cancer” (priority 1997, published 2003).
# Entries after “also recorded” stand apart in the source; their conditions may differ.
# Legend:
# [1] = test system: C-4 cells; assay: Cytotoxicity assay, C-4 (FIG. 8); type: cell-based, human; conditions: 3 day incubation
# Method: The IC50s for the SK0V3 and C-4 cells were 4.0 μM and 0.02 μM respectively. Both cell lines were obtained from the ATCC and grown using standard growth techniques and medium as described above. The IC50s were determined through standard cytoxicity assays described above, with each well containing approximately 10^4 cells.
# [2] = Phase I clinical trial, toxicity and MTD; type: in vivo, human patients
# Method: (§1) Patients had normal bone marrow, hepatic and renal function. Twenty-four patients were treated with escalating doses of AHVB, administered as a 1 hour infusion every 3 weeks. The 24 patients comprised 12 male and 12 female patients with a median age of 60 years (range 27-75 years). Twenty-one of the 24 patients were evaluable. Diagnoses were non-small cell lung cancer (NSCLC), colorectal cancer, soft tissue sarcoma, pancreatic cancer, breast cancer and metastatic neuroendocrine cancer in 11, 5, 4, 1, 1, and 1 patient(s), respectively. […] A total of 51 courses were administered at doses of 2.5, 5, 10,16.5, 21,25 and 30 mg/m^2 to 1,3, 1,3, 6, 6 and 1 patient(s), respectively (see Table 4).
# The first patient was entered in the trial at the 2.5 mg/m^2 dose level. […] Five patients were enrolled at the 16.5 mg/m^2 dose level because two patients were not evaluable and had to be replaced. […] Six patients were enrolled at the 25 mg/m^2 dose level. […] This dose level, therefore, exceeded the MTD.
# Seven patients were enrolled at the 21 mg/m^2 dose level, but only 6 were evaluable for toxicity due to one patient developing Grade 2 hypertension, headache, nausea and vomiting at the start of the infusion, which recurred on rechallenge. This patient received only 15 ml of the drug solution and, therefore, was not evaluable to assess toxicity. […] The nausea and vomiting observed at the 21 mg/m^2 dose level was a DLT. It was determined that the 21 mg/m^2 dose is the MTD.
# [3] = test system: advanced refractory solid tumors; assay: Phase I clinical trial, disease response; type: in vivo, human patients
# Method: as §1
# [4] = Toxicological studies in rats; type: in vivo
compound,measurement,setting,value
"CCC1=C[C@H]2CN(CCc3c([nH]c4ccccc34)[C@@](C(=O)OC)(c3cc4c(cc3OC)N(C)[C@H]3[C@@](O)(C(=O)OC)[C@H](OC(C)=O)[C@]5(CC)C=CCN6CC[C@]43[C@@H]65)C2)C1 [AHVB, 3′,4′-anhydrovinblastine]",IC50,[1],20 nM
same,toxicities,"[2]; 5 mg/m^2, 1 hour IV infusion every 3 weeks","Grade 2 anorexia, hyperamylasemia, and increased serum creatinine; also recorded: One patient treated developed Grade 2 elevated amylase,; also recorded: elevated creatine and anorexia requiring an additional 2"
same,toxicities,"[2]; 10 mg/m^2, 1 hour IV infusion every 3 weeks",One patient treated with minimal toxicity
same,toxicities,"[2]; 16.5 mg/m^2, 1 hour IV infusion every 3 weeks","Grade 2 toxicities including infusional hypertension, anemia and dizziness; also recorded: replaced. The next patient showed Grade 2 toxicities; also recorded: two patients had minimal toxicities"
same,toxicities,"[2]; 21 mg/m^2, 1 hour IV infusion every 3 weeks",Grade 3 nausea and vomiting and Grade 2 constipation; also recorded: patient exhibited Grade 3 nausea and vomiting. This does
same,toxicities,"[2]; 25 mg/m^2, 1 hour IV infusion every 3 weeks","DLTs including Grade 4 level constipation and Grade 3 nausea and vomiting; also recorded: grade 4 constipation, Grade 3 tumor pain, nausea, vomiting,; also recorded: anemia and Grade 4 neutropenia (1 patient)"
same,toxicities,"[2]; 30 mg/m^2, 1 hour IV infusion every 3 weeks",One patient treated developed Grade 3 leukopenia.
same,MTD (maximum-tolerated dose),"[2]; 1 hour IV infusion every 3 weeks, patients",21 mg/m^2
same,stable disease,"[3]; metastatic NSCLC, 21 and 25 mg/m^2",three patients
same,stable disease,"[3]; metastatic sarcoma to lungs, 10 mg/M^2",one patient
same,toxicities,[4],reversible myelosupression and gastrointestinal toxicities
